Laboratory results from ChEMBL document CHEMBL4334438, “Discovery of novel glycogen synthase kinase-3α inhibitors: Structure-based virtual screening, preliminary SAR and biological evaluation for treatment of acute myeloid leukemia” (Eur J Med Chem, 2019).

What was measured:
[1] = target: Death-associated protein kinase 1 (Homo sapiens) (UniProt P53355); assay: Inhibition of recombinant human DAPK1 (1 to 296 residues) assessed as residual activity at 1 uM KKLNRTLSFAEPG as substrate incubated 40 mins in presence of [gamma-33ATP] by scintillation counting based radiometry assay relative to control
[2] = tested on: Mitogen-activated protein kinase kinase kinase 10 (MLK2); assay: Inhibition of recombinant human MLK2 (1 to 499 residues) assessed as residual activity at 1 uM using myelin basic protein as substrate incubated for 40 mins in presence of [gamma-33ATP by scintillation counting based radiometry assay relative to control
[3] = target: Wee1-like protein kinase 2 (Homo sapiens) (UniProt P0C1S8); assay: Inhibition of recombinant full-length human WEE1b at 1 uM assessed as residual activity at 1 uM using LSNLYHQGKFLQTFCGSPLYRRR as substrate measured after 120 mins in presence of [gamma33P]ATP by scintillation counting method relative to control
[4] = target: Protein kinase C gamma type (Homo sapiens) (UniProt P05129); assay: Inhibition of recombinant full-length human PKCgamma assessed as residual activity at 1 uM using histone H1 as substrate measured after 40 mins in presence of [gamma33P]ATP by scintillation counting method relative to control
Mus musculus = species: Mus musculus; assay: Inhibition of recombinant full-length mouse PI3K p110alpha/p85alpha at 1 uM assessed as residual activity at 1 uM using phosphatidylinositol-4, 5-bisphosphate as substrate measured after 40 mins by HTRF assay
[5] = target: PAS domain-containing serine/threonine-protein kinase (Homo sapiens) (UniProt Q96RG2); assay: Inhibition of recombinant human PASK (995 to end residues) assessed as residual activity at 1 uM using KKLNRTLSFAEPG as substrate measured after 40 mins in presence of [gamma33P]ATP by scintillation counting method relative to control
Chain of PAS domain-containing serine/threonine-protein kinase (Homo sapiens) (Q96RG2 whole entry, the tested form may be a part): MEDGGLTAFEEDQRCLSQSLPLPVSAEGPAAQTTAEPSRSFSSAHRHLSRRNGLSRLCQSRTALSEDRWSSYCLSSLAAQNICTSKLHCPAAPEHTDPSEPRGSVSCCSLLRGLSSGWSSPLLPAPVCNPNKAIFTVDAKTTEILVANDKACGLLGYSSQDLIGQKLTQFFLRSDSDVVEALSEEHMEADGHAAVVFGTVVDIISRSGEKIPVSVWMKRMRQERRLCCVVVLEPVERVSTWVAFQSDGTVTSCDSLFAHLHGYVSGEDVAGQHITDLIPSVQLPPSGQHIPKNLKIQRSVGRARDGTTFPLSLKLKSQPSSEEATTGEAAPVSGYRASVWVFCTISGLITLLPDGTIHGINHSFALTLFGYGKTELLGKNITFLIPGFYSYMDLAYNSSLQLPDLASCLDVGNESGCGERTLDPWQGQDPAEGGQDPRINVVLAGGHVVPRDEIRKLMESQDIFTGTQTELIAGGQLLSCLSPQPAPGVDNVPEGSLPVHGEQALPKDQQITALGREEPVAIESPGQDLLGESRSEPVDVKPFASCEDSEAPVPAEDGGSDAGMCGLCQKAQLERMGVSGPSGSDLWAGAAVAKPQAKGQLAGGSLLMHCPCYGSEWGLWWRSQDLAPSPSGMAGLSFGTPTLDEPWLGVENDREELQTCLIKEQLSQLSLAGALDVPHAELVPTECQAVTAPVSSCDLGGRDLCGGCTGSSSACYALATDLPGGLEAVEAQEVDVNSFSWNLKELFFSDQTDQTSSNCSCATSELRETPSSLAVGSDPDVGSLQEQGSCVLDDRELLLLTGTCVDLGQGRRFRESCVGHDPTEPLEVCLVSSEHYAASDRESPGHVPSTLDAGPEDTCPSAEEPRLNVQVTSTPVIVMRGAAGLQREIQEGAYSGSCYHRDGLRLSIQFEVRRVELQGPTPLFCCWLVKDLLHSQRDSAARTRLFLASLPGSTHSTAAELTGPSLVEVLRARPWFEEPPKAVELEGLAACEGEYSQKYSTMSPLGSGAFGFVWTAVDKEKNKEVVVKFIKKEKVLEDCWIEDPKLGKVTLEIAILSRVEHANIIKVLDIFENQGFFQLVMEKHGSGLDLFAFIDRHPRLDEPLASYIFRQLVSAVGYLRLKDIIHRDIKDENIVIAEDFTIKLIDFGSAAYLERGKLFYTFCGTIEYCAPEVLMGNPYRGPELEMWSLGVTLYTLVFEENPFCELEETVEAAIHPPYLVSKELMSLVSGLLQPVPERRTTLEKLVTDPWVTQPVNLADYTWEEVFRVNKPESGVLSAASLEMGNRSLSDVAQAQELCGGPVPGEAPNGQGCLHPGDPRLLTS

[6] = target: CDC7/Cyclin B1 (Homo sapiens) (UniProt P14635+O00311); assay: Inhibition of recombinant full length human CDC7/CyclinB1 assessed as residual activity at 1 uM using Histone H1 as substrate incubated for 120 mins in presence of [gamma-33ATP] by scintillation counting based radiometry assay relative to control; type: protein-complex assay
Chain of CDC7/Cyclin B1 (Homo sapiens) (O00311 whole entry, looked up): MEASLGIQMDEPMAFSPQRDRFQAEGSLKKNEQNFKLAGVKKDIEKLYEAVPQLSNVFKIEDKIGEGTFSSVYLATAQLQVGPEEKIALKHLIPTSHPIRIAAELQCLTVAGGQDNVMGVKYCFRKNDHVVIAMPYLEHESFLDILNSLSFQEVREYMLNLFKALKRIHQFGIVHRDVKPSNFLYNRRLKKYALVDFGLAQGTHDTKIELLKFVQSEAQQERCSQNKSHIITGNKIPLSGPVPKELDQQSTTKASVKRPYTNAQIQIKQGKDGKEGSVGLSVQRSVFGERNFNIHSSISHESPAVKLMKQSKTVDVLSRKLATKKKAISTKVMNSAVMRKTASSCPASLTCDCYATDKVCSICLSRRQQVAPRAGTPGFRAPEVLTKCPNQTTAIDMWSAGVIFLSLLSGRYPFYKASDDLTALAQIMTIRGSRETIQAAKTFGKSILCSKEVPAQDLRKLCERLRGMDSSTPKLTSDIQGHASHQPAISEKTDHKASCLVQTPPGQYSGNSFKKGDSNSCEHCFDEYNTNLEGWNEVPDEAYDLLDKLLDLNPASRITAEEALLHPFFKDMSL
Chain of CDC7/Cyclin B1 (Homo sapiens) (P14635 whole entry, looked up): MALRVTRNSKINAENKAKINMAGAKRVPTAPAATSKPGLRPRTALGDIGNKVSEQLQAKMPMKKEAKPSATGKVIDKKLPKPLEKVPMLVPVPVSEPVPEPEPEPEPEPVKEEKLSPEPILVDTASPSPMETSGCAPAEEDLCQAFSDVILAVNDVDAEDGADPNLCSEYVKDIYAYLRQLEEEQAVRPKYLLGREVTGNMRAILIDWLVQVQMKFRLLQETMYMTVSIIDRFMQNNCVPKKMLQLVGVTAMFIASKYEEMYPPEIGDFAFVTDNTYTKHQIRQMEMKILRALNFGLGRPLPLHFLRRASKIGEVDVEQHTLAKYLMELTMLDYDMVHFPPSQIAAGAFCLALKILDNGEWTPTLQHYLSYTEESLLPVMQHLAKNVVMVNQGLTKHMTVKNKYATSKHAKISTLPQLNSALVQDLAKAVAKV

[7] = target: Vascular endothelial growth factor receptor 1 (Homo sapiens) (UniProt P17948); assay: Inhibition of recombinant human FLT1 (783 to end residues) assessed as residual activity at 1 uM using KKKSPGEYVNIEFG as substrate at 40 mins in presence of [gamma-33ATP] by scintillation counting based radiometry assay relative to control
[8] = target: [Pyruvate dehydrogenase (acetyl-transferring)] kinase isozyme 2, mitochondrial (Homo sapiens) (UniProt Q15119); assay: Inhibition of human PDHK2 assessed as residual activity at 1 uM by radiometric method
[9] = tested on: PI3-kinase p110-alpha/p85-alpha (Homo sapiens), P27986+P42336 [E542K]; assay: Inhibition of recombinant full-length human PI3K p110alpha E542K mutant/p85alpha assessed as residual activity at 1 uM assessed as residual activity at 1 uM using phosphatidylinositol-4, 5-bisphosphate as substrate incubated for 40 mins in presence of [gamma33P]ATP by scintillation counting based radiometry assay relative to control; type: protein-complex assay
[10] = target: Dual specificity tyrosine-phosphorylation-regulated kinase 3 (Homo sapiens) (UniProt O43781); assay: Inhibition of recombinant human DYRK3 assessed as residual activity at 1 uM using RRRFRPASPLRGPPK as substrate at 40 mins in presence of [gamma-33ATP] by scintillation counting based radiometry assay relative to control
[11] = target: Testis-specific serine/threonine-protein kinase 2 (Homo sapiens) (UniProt Q96PF2); assay: Inhibition of recombinant full-length human TSSK2 at 1 uM assessed as residual activity at 1 uM using KKKVSRSGLYRSPSMPENLNRPR as substrate measured after 40 mins in presence of [gamma33P]ATP by scintillation counting method relative to control
Chain of Testis-specific serine/threonine-protein kinase 2 (Homo sapiens) (Q96PF2 whole entry): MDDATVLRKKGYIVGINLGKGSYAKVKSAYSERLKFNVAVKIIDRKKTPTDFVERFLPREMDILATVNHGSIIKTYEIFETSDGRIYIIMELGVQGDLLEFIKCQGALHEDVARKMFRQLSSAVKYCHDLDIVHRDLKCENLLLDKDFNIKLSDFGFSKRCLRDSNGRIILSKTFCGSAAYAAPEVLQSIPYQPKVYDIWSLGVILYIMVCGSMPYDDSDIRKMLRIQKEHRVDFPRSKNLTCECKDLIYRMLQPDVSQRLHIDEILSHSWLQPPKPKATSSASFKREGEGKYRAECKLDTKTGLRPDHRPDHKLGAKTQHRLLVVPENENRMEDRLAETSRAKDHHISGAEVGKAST

[12] = target: Proto-oncogene tyrosine-protein kinase receptor Ret (Homo sapiens) (UniProt P07949); assay: Inhibition of recombinant human Ret (658 to end residues) assessed as residual activity at 1 uM using KKKSPGEYVNIEFG as substrate measured after 40 mins in presence of [gamma33P]ATP by scintillation counting method relative to control
Chain of Proto-oncogene tyrosine-protein kinase receptor Ret (Homo sapiens) (P07949 whole entry): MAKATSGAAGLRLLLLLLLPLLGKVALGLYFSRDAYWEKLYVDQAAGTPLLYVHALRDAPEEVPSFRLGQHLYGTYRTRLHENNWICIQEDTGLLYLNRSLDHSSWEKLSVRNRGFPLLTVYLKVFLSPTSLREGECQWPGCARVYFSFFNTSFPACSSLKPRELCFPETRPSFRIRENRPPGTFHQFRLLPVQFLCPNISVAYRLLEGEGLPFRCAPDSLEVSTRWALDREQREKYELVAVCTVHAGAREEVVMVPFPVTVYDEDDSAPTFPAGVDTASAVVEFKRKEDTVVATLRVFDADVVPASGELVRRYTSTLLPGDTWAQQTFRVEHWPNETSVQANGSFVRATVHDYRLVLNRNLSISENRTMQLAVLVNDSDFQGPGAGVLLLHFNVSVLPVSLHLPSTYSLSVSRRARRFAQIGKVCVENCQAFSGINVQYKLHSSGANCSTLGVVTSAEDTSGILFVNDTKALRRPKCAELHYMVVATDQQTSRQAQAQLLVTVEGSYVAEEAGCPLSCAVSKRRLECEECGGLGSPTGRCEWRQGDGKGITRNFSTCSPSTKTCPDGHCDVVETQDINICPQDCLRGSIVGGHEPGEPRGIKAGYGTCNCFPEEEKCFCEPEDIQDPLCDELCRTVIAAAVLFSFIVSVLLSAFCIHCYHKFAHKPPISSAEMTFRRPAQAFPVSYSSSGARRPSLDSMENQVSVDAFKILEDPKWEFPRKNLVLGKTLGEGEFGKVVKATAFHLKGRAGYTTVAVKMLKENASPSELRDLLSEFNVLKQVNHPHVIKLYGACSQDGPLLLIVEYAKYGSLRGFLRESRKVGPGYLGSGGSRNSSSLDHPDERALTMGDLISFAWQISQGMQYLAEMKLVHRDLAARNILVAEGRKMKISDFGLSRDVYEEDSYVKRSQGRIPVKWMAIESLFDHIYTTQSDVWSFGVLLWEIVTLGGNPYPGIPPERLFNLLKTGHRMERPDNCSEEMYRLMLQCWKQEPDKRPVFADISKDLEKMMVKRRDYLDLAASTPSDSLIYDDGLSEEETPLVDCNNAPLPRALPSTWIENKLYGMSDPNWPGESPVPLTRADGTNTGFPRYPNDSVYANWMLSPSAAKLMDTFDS

[13] = target: Tyrosine-protein kinase FRK (Homo sapiens) (UniProt P42685); assay: Inhibition of recombinant human PTK5 (218 to end residues) assessed as residual activity at 1 uM using GGEEEEYFELVKKKK as substrate measured after 40 mins in presence of [gamma33P]ATP by scintillation counting method relative to control
[14] = target: Dual specificity protein kinase CLK4 (Homo sapiens) (UniProt Q9HAZ1); assay: Inhibition of recombinant human CLK4 (128 to end residues) assessed as residual activity at 1 uM using YRRAAVPPSPSLSR as substrate incubated 40 mins in presence of [gamma-33ATP] by scintillation counting based radiometry assay relative to control
[15] = target: Testis-specific serine/threonine-protein kinase 3 (Homo sapiens) (UniProt Q96PN8); assay: Inhibition of recombinant full-length human TSSK3 at 1 uM assessed as residual activity at 1 uM using AMARAASAAALARRR as substrate measured after 40 mins in presence of [gamma33P]ATP by scintillation counting method relative to control
Chain of Testis-specific serine/threonine-protein kinase 3 (Homo sapiens) (Q96PN8 whole entry, the tested form may be a part): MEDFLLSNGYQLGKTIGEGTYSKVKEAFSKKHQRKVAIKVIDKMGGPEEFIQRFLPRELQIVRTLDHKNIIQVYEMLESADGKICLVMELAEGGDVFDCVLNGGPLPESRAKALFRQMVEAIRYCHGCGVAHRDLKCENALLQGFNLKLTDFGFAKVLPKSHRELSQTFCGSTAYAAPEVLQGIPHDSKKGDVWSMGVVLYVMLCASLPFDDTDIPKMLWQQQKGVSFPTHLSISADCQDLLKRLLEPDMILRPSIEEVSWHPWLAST

[16] = target: Ephrin type-A receptor 2 (Homo sapiens) (UniProt P29317); assay: Inhibition of recombinant human EphA2 (596 to 900 residues) assessed as residual activity at 1 uM using poly(Glu, Tyr) 4:1 as substrate at 40 mins in presence of [gamma-33ATP] by scintillation counting based radiometry assay relative to control
[17] = tested on: Hepatocyte growth factor receptor (Homo sapiens), P08581 [D1228H]; assay: Inhibition of recombinant human MET A1209G/V1290L/D1246H mutant (974 to end residues) assessed as residual activity at 1 uM using KKKGQEEEYVFIE as substrate incubated for 40 mins in presence of [gamma-33ATP by scintillation counting based radiometry assay relative to control
[18] = target: Serine/threonine-protein kinase 16 (Homo sapiens) (UniProt O75716); assay: Inhibition of human STK16 assessed as residual activity at 1 uM by radiometric method relative to control
Chain of Serine/threonine-protein kinase 16 (Homo sapiens) (O75716 whole entry): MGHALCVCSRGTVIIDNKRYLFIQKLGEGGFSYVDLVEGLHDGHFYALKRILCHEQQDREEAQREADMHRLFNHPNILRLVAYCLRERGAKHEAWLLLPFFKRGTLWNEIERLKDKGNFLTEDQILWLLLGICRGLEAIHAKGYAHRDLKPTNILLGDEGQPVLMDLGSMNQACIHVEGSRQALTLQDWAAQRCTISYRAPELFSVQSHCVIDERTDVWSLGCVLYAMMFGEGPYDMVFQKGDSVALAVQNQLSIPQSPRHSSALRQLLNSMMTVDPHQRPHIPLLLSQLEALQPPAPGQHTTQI

[19] = tested on: Platelet-derived growth factor receptor alpha (Homo sapiens), P16234 [V561D]; assay: Inhibition of human PDGFRalpha V561D mutant (550 to end residues) assessed as residual activity at 1 uM using GGMEDIYFEFMGGKKK as substrate measured after 40 mins in presence of [gamma33P]ATP by scintillation counting method relative to control
[20] = target: Calcium/calmodulin-dependent protein kinase type II subunit alpha (Homo sapiens) (UniProt Q9UQM7); assay: Inhibition of recombinant full length human CaMK2alpha assessed as residual activity at 1 uM using KKLNRTLSFAEPG as substrate incubated for 40 mins in presence of [gamma-33ATP] by scintillation counting based radiometry assay relative to control
Chain of Calcium/calmodulin-dependent protein kinase type II subunit alpha (Homo sapiens) (Q9UQM7 whole entry): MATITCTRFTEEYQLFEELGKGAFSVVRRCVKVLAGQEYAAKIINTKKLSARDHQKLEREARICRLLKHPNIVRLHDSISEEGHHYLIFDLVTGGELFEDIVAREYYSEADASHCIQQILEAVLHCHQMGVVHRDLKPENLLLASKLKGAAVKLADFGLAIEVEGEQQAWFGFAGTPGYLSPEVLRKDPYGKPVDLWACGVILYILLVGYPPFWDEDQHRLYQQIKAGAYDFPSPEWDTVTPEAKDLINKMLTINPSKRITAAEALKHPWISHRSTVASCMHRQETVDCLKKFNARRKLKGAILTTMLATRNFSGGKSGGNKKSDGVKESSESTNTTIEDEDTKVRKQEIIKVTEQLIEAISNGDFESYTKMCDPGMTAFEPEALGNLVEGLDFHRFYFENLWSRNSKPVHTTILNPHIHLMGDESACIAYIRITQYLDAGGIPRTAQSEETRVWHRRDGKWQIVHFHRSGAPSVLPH

N=C1NC(=O)/C(=C\c2ccc(-c3cccc([N+](=O)[O-])c3)o2)S1
Activity [1]: 84%
Activity [2]: 101%
Activity [3]: 106%
Activity [4]: 105%
Activity (Mus musculus): 97%
Activity [5]: 92%
Activity [6]: 82%
Activity [7]: 97%
Activity [8]: 102%
Activity [9]: 99%
Activity [10]: 76%
Activity [11]: 108%
Activity [12]: 92%
Activity [13]: 92%
Activity [14]: 60%
Activity [15]: 106%
Activity [16]: 100%
Activity [17]: 92%
Activity [18]: 95%
Activity [19]: 91%
Activity [20]: 80%

C=CCOC(=O)c1cc(-c2ccc(/C=C3/NC(=S)NC3=O)o2)ccc1Cl
Activity [1]: 92%
Activity [2]: 103%
Activity [3]: 93%
Activity [4]: 104%
Activity (Mus musculus): 93%
Activity [5]: 97%
Activity [6]: 93%
Activity [7]: 96%
Activity [8]: 107%
Activity [9]: 91%
Activity [10]: 104%
Activity [11]: 102%
Activity [12]: 102%
Activity [13]: 96%
Activity [14]: 18%
Activity [15]: 99%
Activity [16]: 92%
Activity [17]: 110%
Activity [18]: 90%
Activity [19]: 110%
Activity [20]: 62%
